Several values for one entry are separate records, joined by “and”; a condition that tells them apart may be missing. Equal entries are not always repeated. Entries after “also recorded” stand apart in the source; their conditions may differ. Where two headings read alike, the source gives them in different places.
What was measured:
[1] = system: mouse cauda epididymal sperm; assay: Permanence of sperm immobilization: exposure in PBS, wash, activation in HTF, CASA; assay type: cell-based; conditions: for motility development after short exposure and washout / motility developed in HTF after exposure and washing: 37° C.; for motility development after short exposure and washout: 5 min, washed, HTF 30 and 60 minutes; for motility developed in HTF after exposure and washing: PBS with 1 mM 3-BrPA, 1-30 min, washed twice, HTF 30 min and 60 min
Description: Studies were then performed to determine if sperm-immobilizing effects of 3BP were permanent or transient. Mouse cauda epididymal sperm were collected into PBS (control), PBS containing 1 mM 3BP, PBS containing 1 mM deoxyglucose, PBS with 0.5 mM lonidamine and PBS with 1 mM oxythiamine, followed by incubation at 37° C. for 5 min. The compounds were then washed away with PBS and then the treated sperm were incubated in HTF medium for 30 minutes and 60 minutes, followed by measurement of sperm motility by CASA. […] Again, 3BP had the strongest effects. […] These studies indicate that the sperm motility-abolishing effect of 3BP was permanent. Further, once exposed, sperm will never be able to develop motility.
To determine if sperm exposed to 3BP could still be activated in HTF, mouse sperm from the cauda epididymis were collected into PBS (control) and PBS containing 1 mM 3-BrPA, respectively. Then sperm were incubated in 37° C. for 1, 5, 10, 20 and 30 min, respectively. To remove 3BP, the sperm were washed twice with PBS. The sperm were then transferred to the HTF medium and activated for 30 min (FIG. 5, A) and 60 min (FIG. 5, B), followed by measurement the sperm motility using CASA.

[2] = system: mouse cauda epididymal sperm; assay: Mouse sperm motility in HTF with compound, measured by CASA; assay type: cell-based; conditions: for development of sperm motility: incubated 30 min and 60 min; for inhibition of sperm motility in vitro: HTF with 1 mM analog, 5 to 60 min
Description: Sperm motility requires energy, the sources of which include both glycolysis and mitochondrial activity. The effects of four glycolytic inhibitors (3-bromopyruvate, 2-deoxyglucose, lonidamin and oxythiamine) on sperm motility were evaluated. First mouse cauda epididymal sperm were collected into PBS, HTF (sperm-activating solution), HTF supplemented with 1 mM 3-Bromopyruvate, HTF containing 1 mM 2-Deoxyglucose, HTF with 0.5 mM Lonidamin and HTF with 1 MM Oxythiamine. Epididymal sperm can gain partial motility in PBS, but will never develop hyperactivated motility, which is required for sperm to be competent to fertilize eggs. On the other hand, when epididymal sperm are incubated in human tubular fluid (HTF) medium, which contains all of the sperm motility-activating factors, sperm will quickly develop hyperactivated motility and the motility peaks within 30 minutes and can last at least for several hours at 37° C. In the present studies, mouse cauda epididymal sperm were incubated in PBS, HTF and HTF supplemented with the 4 compounds for 30 min and 60 min. Sperm motility was then measured by Computer-Assisted Sperm Analysis (CASA). […] These studies indicate that in the presence of 3BP (at 1 mM), sperm cannot develop motility.
To determine how quickly 3BP could immobilize sperm, mouse cauda epididymal sperm were collected into HTF and HTF supplemented with 1 mM 3BP, respectively. Sperm were then incubated at 37° C. for 5, 10, 20 30, 40 and 60 min, respectively. Sperm motility was completely lost within 10 minutes at 1 mM concentration and the inhibitory effect appeared to be permanent (see FIG. 3).
Given that 3BP could immobilize sperm, it was determined if analogs of 3BP could have the same effect. Four 3BP analogs, including methyl-pyruvate, ethyl-pyruvate, isoamyl-pyruvate and propyl-pyruvate, were tested to determine if they also had the inhibitory effect on sperm in vitro. In the first study, the effects of methyl-pyruvate and ethyl-pyruvate on sperm motility were evaluated (FIG. 4A). Mouse epididymal sperm were collected into HTF (control), HTF containing 1 mM Methyl-pyruvate and HTF with 1 mM ethyl-pyruvate, respectively. After incubation at 37° C. for 5, 10, 20, 30, 40 and 60 min, sperm motility was measured using CASA.

[3] = system: mouse cauda epididymal sperm; assay: as above; assay type: cell-based; conditions: 1 mM 3BP, activated mouse sperm (HTF 30 minutes, 37° C.)
human "swim-up" sperm [4] = assay: EC50 and EC100 for immobilizing human sperm within 20 seconds of contact, CASA; assay type: cell-based; conditions: for EC50: read-out: EC50 (50% of motile sperm immobilized within 20 seconds of contact)
Description: (§1) To determine at what concentrations 3BP can block the motility of 50% and 100% of the total motile sperm, mouse epididymal sperm were collected into PBS (pH 7.5) and then transferred to pre-warmed (37° C.) HTF medium containing serial dilutions of 3BP (pH 7.5) at concentrations ranging from 10 to 130 mM with a 10 mM increment. Motility was measured using CASA upon 20 seconds of contact with 3BP. […] Therefore, the 3BP EC50 is ˜40˜50 mM and EC100 is ˜100 mM for mouse epididymal sperm at pH 7.5 (FIG. 9). Similarly, the EC50 and EC100 of 3BP in immobilizing human sperm were determined. Human “swim-up” sperm were added to HTF containing 3BP at increasing concentrations ranging from 100 mM to 210 mM at pH 7.5. Sperm motility was measured upon 20 seconds of contact using CASA. […] However, the vaginal environment tends to be acidic (˜pH 5.0) and the effectiveness of 3BP in immobilizing sperm was further evaluated when pH was set at ˜5.0 (FIGS. 10 and 12).

[5] = system: sperm mitochondrial membrane potential; assay: Sperm mitochondrial membrane potential, JC-1 assays; assay type: cell-based; conditions: 3BP 1 mM
Description: (§2) Whether 3BP could block mitochondrial activity in sperm was further examined because mitochondria also contribute energy production in sperm (FIG. 14). […] In control sperm trajectory tracking assays, the cauda epididymal sperm were collected into the HTF medium and incubated for 1, 5, 10 and 20 min (FIG. 15). In 3BP-treated sperm trajectory tracking assays, the cauda epididymal sperm were collected HTF+1 mM 3-BrPA and incubated for 1, 5, 10 and 20 min (FIG. 15). In control human sperm trajectory tracking assays, the human “swim-up” sperm were incubated HTF for 1, 5, 10, and 20 minutes (FIG. 16). In 3BP-treated human sperm movie clips, the human “swim-up” sperm were incubated in HTF+1 mM 3-BrPA for 1, 5, 10 and 20 minutes (FIG. 16). Further, the histology of the vagina and uterus in female mice that received daily intravaginal application of 3BP (200-400 ul lubricant containing 20 mM 3BP) for 3 months was accessed.

sperm ATP production = assay: Sperm ATP content, Luciferase Bioluminescence Assay kit; assay type: cell-based; conditions: 1 mM 3BP, during 60 min activation by HTF
Description: The ATP production in sperm was measured with or without exposure to 1 mM 3BP during 60 min activation by HTF. Sperm ATP contents were measured using a Luciferase Bioluminescence Assay kit (FIG. 13). […] However, such a drastic suppression cannot be explained solely by its anti-glycolytic property because glycolysis provides only partial energy sperm motility requires.

mouse epididymal sperm = assay: EC50 and EC100 for immobilizing mouse sperm within 20 seconds of contact, CASA; assay type: cell-based
Description: as §1

human "swim-up" sperm [6] = assay: Motility of human swim-up sperm exposed to 3BP, CASA; assay type: cell-based; conditions: 1 mM 3BP
Description: In normal men in their reproductive ages, ˜30-40% of sperm in human ejaculates are immotile or display weak motility. A ‘swim-up” procedure allows motile sperm to be enriched. To see the potential of 3BP in suppressing sperm motility, the swim-up procedure was first performed to allow the collection of motile sperm and then the motile human sperm were exposed to 3BP to determine if their motility could be abolished. The human semen was left at room temperature for 30 minutes for liquidification and then 2˜3 ml pre-warmed HTF medium were added followed by centrifugation at 1,500 rpm for 5 min. The sperm pellets were resuspended in 1 ml pre-warmed HTF medium and then incubated at 37° C. in anincubator for 60 min. Motile sperm will “swim up” and stay in the upper portion of the medium, in which motile sperm are enriched in. The “swim-up” sperm were collected, 3BP added at a concentration of 1 mM, and the sperm were incubated for 1, 5, 10, 20 and 30 min at 37° C., respectively. Sperm motility was then measured using CASA (FIG. 6).

[7] = system: vagina and uterus in female mice; assay: Histology of vagina and uterus after daily intravaginal application; assay type: in vivo; conditions: daily intravaginal 200-400 ul lubricant containing 20 mM 3BP, 3 months
Description: as §2

human semen = assay: Sperm motility in liquidified human semen with 3BP; assay type: cell-based; conditions: 1 mM 3BP added directly to liquidified semen, 37° C.
Description: To evaluate the effect of 3BP on sperm motility in human semen, human semen was liquidified under room temperature and 3BP was directly added into the liquidified semen at a concentration of 1 mM followed by incubation at 37° C. for 1, 5, 10, 20 and 30 minutes (FIGS. 7 and 8). These studies indicate that 3BP can completely abolish human sperm motility within 5 minutes of contact.

O=CC[C@@H](O)[C@H](O)[C@H](O)CO [2-deoxyglucose, reference compound]
motility development after short exposure and washout ([1]; PBS with 1 mM compound): will permanently impair motility development
development of sperm motility ([2]; HTF with 1 mM compound): appeared to inhibit the development of sperm motility

O=C(O)C(=O)CBr [3BP, 3-bromo-2-oxopropanoic acid]
exposure time to permanent immobilization with complete loss of motility ([1]; 1 mM 3BP, murine non-activated sperm collected from the epididymis into physiological saline): less than 1 minute
motility developed in HTF after exposure and washing [1]: irreversible
motility developed in HTF after exposure and washing ([1]; listed as 3-BrPA): No motility was developed
motility development after short exposure and washout ([1]; PBS with 1 mM compound): permanent; also recorded: could not develop motility
time to complete loss of sperm motility ([2]; HTF with 1 mM 3BP, 37° C.): ≤ 10 min
development of sperm motility ([2]; HTF with 1 mM compound): almost completely blocked the development of sperm motility
exposure time to permanent immobilization with complete loss of motility [3]: less than 1 minute
EC50 (human "swim-up" sperm [4]; Homo sapiens, Sperm, pH 5, human sperm, pH 5.0): 14 mM
EC100 (100% of motile sperm immobilized within 20 seconds of contact) (human "swim-up" sperm [4]; human sperm, pH 5.0): 23 mM and ~24 mM
EC50 (human "swim-up" sperm [4]; human sperm, pH 5.0): ~13 mM
EC100 (100% of motile sperm immobilized within 20 seconds of contact) (human "swim-up" sperm [4]; human sperm, pH 7.5): ~200 mM
sperm mitochondrial membrane potential [5]: inhibition of sperm mitochondrial membrane potential; also recorded: could inhibit the mitochondrial membrane potential
sperm ATP production (sperm ATP production): can effectively block sperm ATP production
EC100 (100% of motile sperm immobilized within 20 seconds of contact) (mouse epididymal sperm; pH 4.8): ~17 mM
EC50 (mouse epididymal sperm; pH 4.8, read-out: EC50 (50% of motile sperm immobilized within 20 seconds of contact)): ~5 mM
EC100 (100% of motile sperm immobilized within 20 seconds of contact) (mouse epididymal sperm; pH 7.5): ~100 mM
EC50 (mouse epididymal sperm; pH 7.5, read-out: EC50 (50% of motile sperm immobilized within 20 seconds of contact)): 40 to 50 mM
time to abolish motility of motile human sperm (human "swim-up" sperm [6]; 37° C., swim-up sperm in HTF): 1 to 5 min
exposure time to permanent immobilization with complete loss of motility (human "swim-up" sperm [6]; activated human sperm (HTF 30 minutes, 37° C.)): less than 1 minute
histology of the vagina and uterus [7]: no significant changes in the histology; also recorded: No discernible pathological changes were observed
time to completely abolish human sperm motility (human semen): ≤ 5 min

CCOC(=O)C(C)=O [ethyl-pyruvate]
inhibition of sperm motility in vitro ([2]; 37° C.): None of the treatments resulted in inhibition of sperm motility
inhibition of sperm motility in vitro ([2]; 37° C., listed as ethyl pyruvate): no effect on sperm motility

CC(=O)C(=O)OCCC(C)C [isoamyl-pyruvate]
inhibition of sperm motility in vitro ([2]; 37° C.): no effect on sperm motility

O=C(O)c1nn(Cc2ccc(Cl)cc2Cl)c2ccccc12 [lonidamin, reference compound]
motility development after short exposure and washout ([1]; PBS with 0.5 mM lonidamine): will permanently impair motility development
development of sperm motility ([2]; HTF with 0.5 mM Lonidamin): appeared to inhibit the development of sperm motility

Cc1ncc(C[n+]2csc(CCO)c2C)c(=O)[nH]1 [oxythiamine, reference compound]
motility development after short exposure and washout ([1]; PBS with 1 mM compound): will permanently impair motility development
development of sperm motility ([2]; HTF with 1 mM compound): appeared to inhibit the development of sperm motility

CCCOC(=O)C(C)=O [propyl-pyruvate]
inhibition of sperm motility in vitro ([2]; 37° C.): no effect on sperm motility

From patent US20150359763A1, “USE OF 3-BROMOPYRUVATE AS A CONTRACEPTIVE” (Board of Regents of the Nevada System of Higher Education, …, priority 2013, published 2015)
